Results from patent US20230355705A1, “DISCOVERY OF YEATS2 YEATS DOMAIN INHIBITORS AS NOVEL ANTI-CANCER AGENTS” (The University of Hong Kong, priority 2022, published 2023).
Non-standard residues stand in square brackets, D forms with d. Residues, ends and D or L forms follow the SMILES beside them. *: point of attachment. Benzofuran(2-CO) = O=C(c1cc2ccccc2o1)*; X1 = O=C(c1cc2ccc(Br)cc2o1)*; NMeA = CN[C@@H](C)C(=O)O; Ms = CS(=O)(=O)*

Molecular target: T1, YEATS2 YEATS domain (Homo sapiens, UniProt Q9ULM3)
T1 construct: 201-332 containing an N-terminal 10×His-SUMO tag was overexpressed in Escherichia coli BL21 (DE3); 10×His-SUMO (N, cleaved yes); made in house; host or cells: Escherichia coli BL21 (DE3)
T1 sequence (Q9ULM3 201-332 limits assumed): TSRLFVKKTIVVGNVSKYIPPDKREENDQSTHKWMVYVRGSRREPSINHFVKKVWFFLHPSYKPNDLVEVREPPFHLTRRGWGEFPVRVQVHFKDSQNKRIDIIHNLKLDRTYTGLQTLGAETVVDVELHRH
Experiment: competitive photo-cross-linking assay
Format: binding
Procedure: The probes in the absence or presence of different concentrations of competitors were incubated with recombinant proteins (5 or 20 ng/µL) in binding buffer (50 mM HEPES, 150 mM NaCl, 2 mM MgCl2, 0.1% Tween-20, 20% glycerol, pH 7.5, with 50 ng/µL BSA) for 10 min at 4° C. Then, the samples were irradiated at 365 nm using UV lamp for 20 min in 96-well on ice.
To the prepared photo-cross-linking samples, we added 100 µM rhodamine-N3 for in-gel fluorescence (10 mM stock in DMSO), followed by 1 mM TCEP (freshly prepared 50 mM stock in H2O) and 100 µM TBTA (10 mM stock in DMSO); finally, the reactions were initiated by the addition of 1 mM CuSO4 (freshly prepared 50 mM stock in H2O). The reactions were incubated for 1 h at room temperature (22 to 25° C.) with regular vortexing. The reactions were quenched by adding 5 volumes of ice-cold acetone and placed at — 20° C. overnight to precipitate proteins.
Samples after protein precipitation were centrifuged at 13,000 × g for 5 min at 4° C. The supernatant was discarded, and the pellet was washed with ice-cooled acetone and air-dried for 10 min. The proteins were resuspended in 1 × LDS sample loading buffer (Invitrogen, Waltham, MA) with 50 mM DTT and heated at 95° C. for 8 min. Samples were then resolved by SDS-PAGE. […]
YEATS domain of YEATS2 is newly identified as histone benzoylation reader. […]

Row | inhibitory activity / potency against YEATS2 YEATS (in words) | IC50 (Table 2) | SMILES
1 | maintained the inhibitory activity | – | C[C@@H](C(=O)N1CCC[C@H]1C(N)=O)N(C)C(=O)[C@H](CO)NC(=O)[C@H](CCCCNC(=O)c1cc2ccc(Br)cc2o1)NS(C)(=O)=O [HC18] (Ms-K(X1)S[NMeA]P-NH2)
2 | – | 0.6 µM | C[C@H](NC(=O)[C@H](CO)NC(=O)[C@H](CCCCNC(=O)c1cc2ccccc2o1)NS(C)(=O)=O)C(=O)N1CCC[C@H]1C(N)=O [MsKSAP] (Ms-K(Benzofuran(2-CO))SAP-NH2)
